This note sets out measurements from patent US12122750B2, “AT2R antagonists and uses thereof” (Eli Lilly and Company, priority 2022, dated 2024).

The target in assay [1] is T1, AT2R (Rattus norvegicus (Rat), UniProt P35351). Put plainly: AT2R ex vivo autoradiography receptor occupancy in rat adrenal sections after oral dosing. More on the design: species or system Sprague Dawley rats. The settings on record: for IC50 / IC80: plasma concentration plotted vs % receptor occupancy, rat; for receptor occupancy at 0.3 mg/kg: oral dose 0.3 mg/kg; for receptor occupancy at 1 mg/kg: oral dose 1 mg/kg; for receptor occupancy at 3 mg/kg: oral dose 3 mg/kg; for receptor occupancy at 10 mg/kg: oral dose 10 mg/kg; for ex vivo IC50 (TER) / ex vivo IC80 (TER): rat receptor occupancy. The procedure:
The ability for a compound to engage its target may be measured by determining compound's receptor occupancy. An ex vivo autoradiography assay was conducted as described herein.
Twenty male Sprague Dawley rats (140-150 gms, Envigo) were maintained under controlled laboratory conditions on a 12 hr light cycle with ad lib access to food and water. […] Following a pre-determined survival time, plasma and adrenals were collected and frozen at −80° C. until analyzed. Frozen 20 μm sections of an adrenal from each animal were collected onto gelatin-coated slides and stored at −80° C. […] The specific ligand binding for each animal is calculated by subtracting the non-specific binding from the total bound.

In assay [2] the target is T1, AT2R. Put plainly: Inhibition of C21-induced increase in dermal blood flow (laser Doppler imaging). It is filed as in vivo, Sprague Dawley rats.
In a further assay the target is rAT2R (Rattus norvegicus (Rat), UniProt P35351). In words: Rat binding affinity, competitive radioligand binding assay (SPA), rAT2R HEK293 membranes. The settings on record: rat AT2R. The procedure:
Membrane Preparation Protocol (hAT2R HEK293 and rAT2R HEK293)
Receptor Binding Protocol
The assays were performed with a scintillation proximity assay (SPA) method using polyvinyltoluene (PVT) wheat germ agglutinin-coupled SPA beads (Perkin Elmer Cat. #RPNQ0001). Assay buffer containing BSA (50 mM Tris-HCl, pH 7.5, 150 mM NaCl, 0.1% w/v fatty-acid free BSA) was used for preparing radioligand, membrane and SPA bead reagent dilution to working stock concentrations. Reference control and test compounds were diluted to obtain ten-point concentration response curves using a four-fold serial dilution protocol onto assay plates, dispensed acoustically from DMSO stock using automated ECHO instrument technology (Labcyte, Inc.). Concentration response curves were routinely generated with the highest final assay concentration for the reference angiotensin-II control at 50 nM, and the highest final assay concentration for the test compounds at 50 μM. […] The hAT2R membrane was combined with PVT-WGA SPA beads to obtain a final assay concentration of 0.25 μg/well hAT2R membrane+0.1 mg/well PVT-WGA SPA bead. And the hAT1R membrane PVT-WGA SPA bead final concentrations was 0.5 μg/well hAT1R membrane+0.1 mg/well PVT-WGA SPA bead. […] For all assays, radioligand addition was followed by the addition of membrane-SPA bead mixture, i.e., the hAT2R membrane-SPA bead mixture (30 μL), the rAT2R membrane-SPA bead mixture, or the AT1R membrane-SPA bead mixture (30 μL) into the assay plate. All dispensing steps were added using a Multiflo FX (Biotek, Inc.) bulk dispensing instrument. After reagent addition steps, assay plates were sealed, and plate contents mixed for one minute on a benchtop micro-plate shaker. Following a 10-hour incubation at room temperature to allow for bead settling and radioligand binding, bound radioactivity was quantitated using a Microbeta Trilux scintillation counter (Perkin Elmer) and expressed as counts per minute (CPM). The unlabeled angiotensin-II control was included on each plate as an experimental assay reference.
Compounds were tested in a 10-point concentration response curve (CRC) format, with each plate containing the positive control angiotensin-II positive reference compound, and experimental compounds. Maximum binding response (Max) was determined in 32 control wells per plate using assay buffer treatment only, and the minimum binding controls or nonspecific binding response (Min) was also determined in 32 wells per plate by the treatment with 50 nM angiotensin-II. All test sample concentration responses were normalized to the control response and calculated as a percent of the maximal response after correcting for nonspecific binding as shown below: % Specific inhibition=100%−[(CPM−Min)/(Max−Min)×100%]
Percent specific binding (y-axis) was plotted versus the log concentration of compound (x-axis).

T1 sequence (P35351 whole entry): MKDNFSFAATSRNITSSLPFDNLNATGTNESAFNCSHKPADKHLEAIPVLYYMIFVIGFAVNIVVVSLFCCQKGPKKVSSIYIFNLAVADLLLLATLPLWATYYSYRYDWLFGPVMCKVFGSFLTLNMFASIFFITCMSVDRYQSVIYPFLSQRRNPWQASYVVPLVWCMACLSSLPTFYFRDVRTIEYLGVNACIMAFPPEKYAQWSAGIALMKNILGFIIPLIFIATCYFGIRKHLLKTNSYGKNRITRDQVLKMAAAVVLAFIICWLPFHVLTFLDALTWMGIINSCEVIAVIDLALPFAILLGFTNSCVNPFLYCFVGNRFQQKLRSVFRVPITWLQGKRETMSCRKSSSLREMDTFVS
Sequence of rAT2R (P35351 whole entry): as above

Consider `O=C(N1CCC(CC(=O)N(c2ccccc2)c2ccccc2)(C(=O)O)CC1)N1CCc2ccccc21` [Example 3, 1-(indoline-1-carbonyl)-4-[2-oxo-2-(N-phenylanilino)ethyl]piperidine-4-carboxylic acid], for which, at AT2R [1], 0.821 nM corresponded to half-maximal inhibition (IC50), the IC80 was found to be 3.34 nM, the “ex vivo IC50 (TER)” value is 0.375 TER and the “ex vivo IC80 (TER)” value is 1.525 TER. On AT2R [1] (rat adrenal, read-out: % RO), the receptor occupancy at 0.3 mg/kg turned out to be 37.8%, the receptor occupancy at 1 mg/kg worked out at 61.9%, the receptor occupancy at 3 mg/kg came to 83.5% and the receptor occupancy at 10 mg/kg stood at 90.5%. Moreover, the “mode of action at AT2R (inhibition of C21-induced dermal blood flow)” value at AT2R [2] (AT2R agonist C21 intradermal) is given as “acting as a antagonist”. Also, the inhibition at 0.3 mg/kg against AT2R [2] (dose 0.3 mg/kg, C21-induced increase in dermal blood flow) was 49.6%. At AT2R [2] (dose 3 mg/kg, C21-induced increase in dermal blood flow), testing at 3 mg/kg gave an inhibition of 62.9%. The same compound gave an inhibition at 10 mg/kg on AT2R [2] (C21-induced increase in dermal blood flow) of 74.3%. Also, on AT2R [2] (second, unlabelled column under % Inhibition), the inhibition at 10 mg/kg amounted to 95.6%. Further, the inhibition constant Ki at rAT2R came to 2.19 nM.

Take `CN(C(=O)N1CCC(CC(=O)N(c2ccccc2)C(C2CC2)C2CC2)(C(=O)O)CC1)c1ccc(F)cc1` [Example 18, 4-[2-[N-(dicyclopropylmethyl)anilino]-2-oxo-ethyl]-1-[(4-fluorophenyl)-methyl-carbamoyl]piperidine-4-carboxylic acid]: on AT2R [1], the half-inhibitory concentration (IC50) is 0.114 nM, the 80% effect level (IC80) was put at 0.449 nM, the “ex vivo IC50 (TER)” value turned out to be 0.186 TER and the “ex vivo IC80 (TER)” value came to 0.731 TER. For the same compound, the receptor occupancy at 0.01 mg/kg at AT2R [1] (rat adrenal, oral dose 0.01 mg/kg, read-out: % RO) came out at 16.3%. In addition, the receptor occupancy at 0.03 mg/kg on AT2R [1] (rat adrenal, oral dose 0.03 mg/kg, read-out: % RO) amounted to 65%. In addition, the receptor occupancy at 0.1 mg/kg on AT2R [1] (rat adrenal, oral dose 0.1 mg/kg, read-out: % RO) came out at 76.3%. Besides, on AT2R [1] (rat adrenal, read-out: % RO), the receptor occupancy at 0.3 mg/kg was determined as 79.3%, the receptor occupancy at 1 mg/kg was 93.2%, the receptor occupancy at 3 mg/kg was found to be 90.9% and the receptor occupancy at 10 mg/kg amounted to 93%. On rAT2R, the affinity corresponds to a Ki of 0.614 nM.
